Measurements as given in patent US20260347319A1, “YAP/TAZ-TEAD ONCOPROTEINS INHIBITORS” (BridGene Biosciences, Inc., priority 2022, published 2026).

Columns and labels:
Format in all cases: cell-based
[1] = system: TEAD1; test: MCF-7 TEAD1-luciferase reporter assay (MCF7-TEAD-Luc); settings: MCF7 cells, overnight; for IC50: Homo sapiens; for TEAD1-Luc MCF7: Max Inhibition: % of DMSO-treated control
Description: The ability of compounds to inhibit TEAD-dependent transcription was assessed in the MCF7-TEAD-Luc reporter assay (BPS #60618). Cells were seeded at 10,000 cells in 200 μL per well into white wall, clear bottom 96-well plates (Corning #3610) and incubated at 37° C. for 24 hours, then treated with serial diluted compounds overnight, and luciferase signal was measured using the ONE-Step Luciferase Assay System (BPS #60690) using an EnSight Multimode plate reader (PerkinElmer, model #MLDHH34000000, integration time 100 ms) with Kaleido 3.0. software. For data analysis, dose-dependent curves were plotted as “% inhibition” (% of DMSO-treated control wells), and were fitted by four-parametric model in GraphPad Prism to obtain IC50 values.

[2] = system: NCI-H226 cells; test: Cell proliferation and viability assay (CPA) in NCI-H226 cells; settings: up to 6 d; for IC50: Homo sapiens, 144 h, read-out: CPA NCI-H226 IC50 Ave
Description: Compound potency and efficacy in inhibiting cell proliferation and viability was assessed in multiple cell lines. For example, NCI-H226 cells (ATCC #CRL-5826) were seeded at 2000 cells in 200 μL medium per well of a 96-well plate (Corning #3610) and incubated at 37° C. for 24 hours, then treated with serial diluted compounds for up to 6 d. Viable cells were measured by CellTiter-Glo 2.0 Cell Viability Assay (Promega #G9243), and the luminescence signal was read using an EnSight Multimode plate reader (PerkinElmer, model 9MLDHH34000000, integration time 100 ms) with Kaleido 3.0. software. For data analysis, dose-dependent curves were plotted as “inhibition” (% of DMSO-treated control wells), and were fitted by four-parametric model in GraphPad Prism to obtain IC50 values. […]

[3] = system: H2052 cells; test: Cell proliferation and viability assay (CPA) in H2052 cells; settings: for IC50: Homo sapiens, NCI-H2052, read-out: CPA H2052 IC50 Ave
Description: Compound potency and efficacy in inhibiting cell proliferation and viability was assessed in multiple cell lines. For example, NCI-H226 cells (ATCC #CRL-5826) were seeded at 2000 cells in 200 μL medium per well of a 96-well plate (Corning #3610) and incubated at 37° C. for 24 hours, then treated with serial diluted compounds for up to 6 d. Viable cells were measured by CellTiter-Glo 2.0 Cell Viability Assay (Promega #G9243), and the luminescence signal was read using an EnSight Multimode plate reader (PerkinElmer, model 9MLDHH34000000, integration time 100 ms) with Kaleido 3.0. software. For data analysis, dose-dependent curves were plotted as “inhibition” (% of DMSO-treated control wells), and were fitted by four-parametric model in GraphPad Prism to obtain IC50 values.
Alternatively, cells were plated at 2000 cells in 200 μL medium per well of a 96-well plate (Corning #3585) overnight, treated with compound for 7 days, cell density images taken by Incycte S3 live cell analysis instrument (Sartorius) every 24 hours at the same time. Images were analyzed by Incucyte's AI-driven software to get C “% confluence” for every image. Dose-dependent curves were plotted as “% inhibition” (% o of DMSO-treated control wells) and were fitted by four-parametric model in GraphPad Prism to obtain IC50 values.

IC50 [1]	IC50 [2]	IC50 [3]	SMILES	TEAD1-Luc MCF7: Max Inhibition [1]	CPA NCI-H226 Max Inh Ave [2]	CPA H2052 Max Inh Ave [3]
10 to 100 nM	≤ 100 nM	100 to 500 nM	C=CC(=O)N1CC[C@](C#Cc2ccc(C(F)(F)F)cc2)(OC)C1 (single isomer, unassigned) [Example 59, (R*)-1-(3-methoxy-3-((4-(trifluoromethyl)phenyl)ethynyl)pyrrolidin-1-yl)prop-2-en-1-one]	A (A ≥ 75%)	A (A ≥ 75%)	B (75% > B ≥ 50%)
10 to 100 nM	≤ 100 nM	≤ 100 nM	C=CC(=O)N1CC[C@](C)(C#Cc2ccc(C(F)(F)F)cc2)C1 (single isomer, unassigned) [Example 60, 1-[(3R*)-3-methyl-3-{2-[4-(trifluoromethyl)phenyl]ethynyl}pyrrolidin-1-yl]prop-2-en-1-one]	A (A ≥ 75%)	A (A ≥ 75%)	A (A ≥ 75%)
10 to 100 nM	≤ 100 nM	≤ 100 nM	C=CC(=O)N1CC[C@@](C)(C#Cc2ccc(C(F)(F)F)cc2)C1 (single isomer, unassigned) [Example 61, 1-[(3S*)-3-methyl-3-{2-[4-(trifluoromethyl)phenyl]ethynyl}pyrrolidin-1-yl]prop-2-en-1-one]	A (A ≥ 75%)	B (75% > B ≥ 50%)	A (A ≥ 75%)
≤ 10 nM	≤ 100 nM	≤ 100 nM	C=CC(=O)N1CC[C@@H](C#Cc2ccc(C(F)(F)F)cc2)C1 (single isomer, unassigned) [Example 67, (S*)-1-(3-((4-(trifluoromethyl)phenyl)ethynyl)pyrrolidin-1-yl)prop-2-en-1-one]	A (A ≥ 75%)	A (A ≥ 75%)	A (A ≥ 75%)
≤ 10 nM	100 to 500 nM	≤ 100 nM	C=CC(=O)N1CC(C/C=C\c2cc(C(F)(F)F)on2)C1 [Example 1, 1-{3-[(2Z)-3-[5-(trifluoromethyl)-1,2-oxazol-3-yl]prop-2-en-1-yl]azetidin-1-yl}prop-2-en-1-one]	A (A ≥ 75%)	B (75% > B ≥ 50%)	B (75% > B ≥ 50%)
10 to 100 nM	–	100 to 500 nM	C=CC(=O)N1CC[C@@H](/C=C/c2ccc(C(F)(F)F)cc2)C1 [Example 9]	–	–	–
≤ 10 nM	100 to 500 nM	≤ 100 nM	C=CC(=O)N1CC(/C=C/c2ccc(C(F)(F)F)cn2)C1 [Example 11, 1-(3-(2-(5-(trifluoromethyl)pyridin-2-yl)vinyl)azetidin-1-yl)prop-2-en-1-one]	A (A ≥ 75%)	A (A ≥ 75%)	A (A ≥ 75%)
10 to 100 nM	–	100 to 500 nM	C=CC(=O)N1CC(/C=C\c2cnc(C(F)(F)F)s2)C1 [Example 12]	–	–	–
≤ 10 nM	≤ 100 nM	≤ 100 nM	C=CC(=O)N1CC(/C=C/c2cnc(C(F)(F)F)s2)C1 [Example 13, 1-{3-[(E)-2-[2-(trifluoromethyl)-1,3-thiazol-5-yl]ethenyl]azetidin-1-yl}prop-2-en-1-one]	A (A ≥ 75%)	B (75% > B ≥ 50%)	B (75% > B ≥ 50%)
10 to 100 nM	–	100 to 500 nM	C=CC(=O)N1CC(/C=C/c2cccc(C(F)(F)F)c2)C1 [Example 14]	B (75% > B ≥ 50%)	–	B (75% > B ≥ 50%)
10 to 100 nM	–	–	C=CC(=O)N1CCCC(C#Cc2ccc(C(F)(F)F)cc2)C1 (stereo not shown) [Example 76, 1-(3-((4-(trifluoromethyl)phenyl)ethynyl)piperidin-1-yl)prop-2-en-1-one]	A (A ≥ 75%)	–	–
10 to 100 nM	–	–	CC#CC(=O)N1CC(/C=C/c2ccc(C(F)(F)F)cc2)C1 [Example 77, (E)-1-(3-(4-(trifluoromethyl)styryl)azetidin-1-yl)but-2-yn-1-one]	B (75% > B ≥ 50%)	–	–
100 to 500 nM	–	–	C#CC(=O)N1CC(/C=C/c2ccc(C(F)(F)F)cc2)C1 [Example 78, (E)-1-(3-(4-(trifluoromethyl)styryl)azetidin-1-yl)prop-2-yn-1-one]	A (A ≥ 75%)	–	–
10 to 100 nM	–	–	C=CC(=O)N1CCC(C#Cc2cccc(C(F)(F)F)c2)CC1 [Example 79, 1-(4-((3-(trifluoromethyl)phenyl)ethynyl)piperidin-1-yl)prop-2-en-1-one]	B (75% > B ≥ 50%)	–	–
10 to 100 nM	–	–	C=CC(=O)N1CCC(C#Cc2ccc(C(F)(F)F)cc2)CC1 [Example 80, 1-(4-((4-(trifluoromethyl)phenyl)ethynyl)piperidin-1-yl)prop-2-en-1-one]	A (A ≥ 75%)	–	–
100 to 500 nM	–	–	CC#CC(=O)N1CC[C@H](/C=C/c2ccc(C(F)(F)F)cc2)C1 [Example 81, (R,E)-1-(3-(4-(trifluoromethyl)styryl)pyrrolidin-1-yl)but-2-yn-1-one]	B (75% > B ≥ 50%)	–	–
10 to 100 nM	–	–	C#CC(=O)N1CC[C@H](/C=C/c2ccc(C(F)(F)F)cc2)C1 [Example 82, (R, E)-1-(3-(4-(trifluoromethyl)styryl)pyrrolidin-1-yl)prop-2-yn-1-one]	A (A ≥ 75%)	–	–
10 to 100 nM	–	–	C=CC(=O)N1CC[C@H](C(C)(C)/C=C/c2ccc(C(F)(F)F)cc2)C1 [Example 86, (R, E)-1-(3-(2-methyl-4-(4-(trifluoromethyl)phenyl)but-3-en-2-yl)pyrrolidin-1-yl)prop-2-en-1-one]	B (75% > B ≥ 50%)	–	–
100 to 500 nM	–	–	C=CC(=O)N1CC[C@H](/C=C\c2ccc(C(F)(F)F)cc2)C1 [Example 87, (R, Z)-1-(3-(4-(trifluoromethyl)styryl)pyrrolidin-1-yl)prop-2-en-1-one]	B (75% > B ≥ 50%)	–	–
10 to 100 nM	–	–	C=CC(=O)N1CCC(C/C=C/c2ccc(C(F)(F)F)cc2)CC1 [Example 90, (E)-1-(4-(3-(4-(trifluoromethyl)phenyl)allyl)piperidin-1-yl)prop-2-en-1-one]	B (75% > B ≥ 50%)	–	–
10 to 100 nM	–	–	C=CC(=O)N1CCC(/C=C/C(O)c2ccc(C(F)(F)F)cc2)C1 (stereo not shown) [Example 99, (E)-1-(3-(3-hydroxy-3-(4-(trifluoromethyl)phenyl)prop-1-en-1-yl)pyrrolidin-1-yl)prop-2-en-1-one]	B (75% > B ≥ 50%)	–	–
10 to 100 nM	–	–	C=CC(=O)N1CCC(/C=C\C(O)c2ccc(C(F)(F)F)cc2)C1 (stereo not shown) [Example 100, (Z)-1-(3-(3-hydroxy-3-(4-(trifluoromethyl)phenyl)prop-1-en-1-yl)pyrrolidin-1-yl)prop-2-en-1-one]	B (75% > B ≥ 50%)	–	–
100 to 500 nM	–	–	C=CC(=O)N1CCC(/C=C\C(OC)c2ccc(C(F)(F)F)cc2)C1 (stereo not shown) [Example 101, (Z)-1-(3-(3-methoxy-3-(4-(trifluoromethyl)phenyl)prop-1-en-1-yl)pyrrolidin-1-yl)prop-2-en-1-one]	B (75% > B ≥ 50%)	–	–
10 to 100 nM	–	–	C=CC(=O)N1CCC(/C=C/C(OC)c2ccc(C(F)(F)F)cc2)C1 (stereo not shown) [Example 102, (E)-1-(3-(3-methoxy-3-(4-(trifluoromethyl)phenyl)prop-1-en-1-yl)pyrrolidin-1-yl)prop-2-en-1-one]	C (50% > C ≥ 2%)	–	–
10 to 100 nM	–	–	C=CC(=O)N1CCC2(C=C(c3ccc(C(F)(F)F)cc3)OC2)C1 (stereo not shown) [Example 105, 1-(3-(4-(trifluoromethyl)phenyl)-2-oxa-7-azaspiro[4.4]non-3-en-7-yl)prop-2-en-1-one]	A (A ≥ 75%)	–	–
10 to 100 nM	–	–	C=CC(=O)N1CCC2(CC(/C=C/c3ccc(C(F)(F)F)cc3)C2)C1 (stereo not shown) [Example 106, (E)-1-(2-(4-(trifluoromethyl)styryl)-6-azaspiro[3.4]octan-6-yl)prop-2-en-1-one]	B (75% > B ≥ 50%)	–	–
